Data on 12 molecules can be found in ChEMBL document CHEMBL4130619, “Structure-Based Virtual Screening for the Discovery of Novel Inhibitors of New Delhi Metallo-β-lactamase-1” (ACS Med Chem Lett, 2018).

Test [1] can be described thus: Competitive inhibition of bacterial NDM1 expressed in Escherichia coli JM109 (DE3) pre-incubated for 10 mins before nitrocefin substrate addition by spectrophotometry. More on the design: species or system Bacteria.
The subject of test [2] is Bacteria. Description: Competitive inhibition of bacterial NDM1 expressed in Escherichia coli JM109 (DE3) at 200 uM pre-incubated for 10 mins before nitrocefin substrate addition by spectrophotometry.
In test [3] the test system is Escherichia coli. Put plainly: Antibacterial activity in Escherichia coli BL21 (DE3) expressing pET-24a-blaNDM-1 incubated at 37 degC for 18 hrs by spectrophotometry. Format: functional.
Test [4] deals with Escherichia coli. Description: Antibacterial activity in Escherichia coli clinical isolates endogenously expressing NDM1 incubated at 37 degC for 18 hrs by spectrophotometry. Format: functional.
Test [5] addresses Beta-lactamase NDM-1 (Escherichia coli) (UniProt E5KIY2). Description: Inhibition of NDM1 in Escherichia coli clinical isolates assessed as potentiation of meropenem-induced antibacterial activity by measuring reduction in meropenem MIC incubated at 37 degC for 18 hrs by spectrophotometry based checkerboard microdilution assay. A general note: Broth dilution looks for growth in wells or tubes with falling amounts of substance.

The subject of test [6] is Bacteria. Put plainly: Inhibition of bacterial NDM1 expressed in Escherichia coli BL21 (DE3) expressing pET-24a-blaNDM-1 assessed as potentiation of meropenem-induced antibacterial activity by measuring reduction in meropenem MIC incubated at 37 degC for 18 hrs by spectrophotometry based checkerboard microdilution assay.
The subject of test [7] is Bacteria. Description: Inhibition of bacterial NDM1 expressed in Escherichia coli BL21 (DE3) expressing pET-24a-blaNDM-1 assessed as potentiation of cefotaxime-induced antibacterial activity by measuring combination MIC at 0.25 ug/ml incubated at 37 degC for 18 hrs by spectrophotometry based checkerboard microdilution assay.
In test [8] the test system is Bacteria. Description: Inhibition of bacterial NDM1 expressed in Escherichia coli BL21 (DE3) expressing pET-24a-blaNDM-1 assessed as potentiation of ampicillin-induced antibacterial activity by measuring combination MIC at 0.25 ug/ml incubated at 37 degC for 18 hrs by spectrophotometry based checkerboard microdilution assay.
Test [9] deals with Bacteria. Description: Inhibition of bacterial NDM1 expressed in Escherichia coli BL21 (DE3) expressing pET-24a-blaNDM-1 assessed as potentiation of meropenem-induced antibacterial activity by measuring combination MIC at 64 ug/ml incubated at 37 degC for 18 hrs by spectrophotometry based checkerboard microdilution assay.
For test [10], the system named is Bacteria. Put plainly: Inhibition of bacterial NDM1 expressed in Escherichia coli BL21 (DE3) expressing pET-24a-blaNDM-1 assessed as potentiation of meropenem-induced antibacterial activity by measuring combination MIC at 0.5 ug/ml incubated at 37 degC for 18 hrs by spectrophotometry based checkerboard microdilution assay.
Test [11] relates to Bacteria. Description: Inhibition of bacterial NDM1 expressed in Escherichia coli BL21 (DE3) expressing pET-24a-blaNDM-1 assessed as potentiation of cefazolin-induced antibacterial activity by measuring combination MIC at 0.25 ug/ml incubated at 37 degC for 18 hrs by spectrophotometry based checkerboard microdilution assay.
Test [12] concerns the target Beta-lactamase NDM-1 (Escherichia coli) (UniProt E5KIY2). Put plainly: Inhibition of NDM1 in Escherichia coli clinical isolates assessed as potentiation of meropenem -induced antibacterial activity by measuring combination MIC at 32 ug/ml incubated at 37 degC for 18 hrs by spectrophotometry based checkerboard microdilution assay.
The subject of test [13] is Bacteria. Description: Inhibition of bacterial NDM1 expressed in Escherichia coli BL21 (DE3) expressing pET-24a-blaNDM-1 assessed as potentiation of cefotaxime-induced antibacterial activity by measuring fractional inhibitory concentration index at 0.25 ug/ml incubated at 37 degC for 18 hrs by spectrophotometry based checkerboard microdilution assay.
Test [14] concerns Bacteria. Put plainly: Inhibition of bacterial NDM1 expressed in Escherichia coli BL21 (DE3) expressing pET-24a-blaNDM-1 assessed as potentiation of ampicillin-induced antibacterial activity by measuring fractional inhibitory concentration index at 0.25 ug/ml incubated at 37 degC for 18 hrs by spectrophotometry based checkerboard microdilution assay.
Test [15] concerns Bacteria. Description: Inhibition of bacterial NDM1 expressed in Escherichia coli BL21 (DE3) expressing pET-24a-blaNDM-1 assessed as potentiation of meropenem-induced antibacterial activity by measuring fractional inhibitory concentration index at 64 ug/ml incubated at 37 degC for 18 hrs by spectrophotometry based checkerboard microdilution assay.
Test [16] has as its system Bacteria. Description: Inhibition of bacterial NDM1 expressed in Escherichia coli BL21 (DE3) expressing pET-24a-blaNDM-1 assessed as potentiation of meropenem-induced antibacterial activity by measuring fractional inhibitory concentration index at 0.5 ug/ml incubated at 37 degC for 18 hrs by spectrophotometry based checkerboard microdilution assay.
Test [17] relates to Bacteria. Description: Inhibition of bacterial NDM1 expressed in Escherichia coli BL21 (DE3) expressing pET-24a-blaNDM-1 assessed as potentiation of cefazolin-induced antibacterial activity by measuring fractional inhibitory concentration index at 0.25 ug/ml incubated at 37 degC for 18 hrs by spectrophotometry based checkerboard microdilution assay.
The target of test [18] is Beta-lactamase NDM-1 (Escherichia coli) (UniProt E5KIY2). Put plainly: Inhibition of NDM1 in Escherichia coli clinical isolates assessed as potentiation of cefazolin-induced antibacterial activity by measuring combination MIC at >256 ug/ml incubated at 37 degC for 18 hrs by spectrophotometry based checkerboard microdilution assay.
The target is the same in test [19]. Put plainly: Inhibition of NDM1 in Escherichia coli clinical isolates assessed as potentiation of cefotaxime-induced antibacterial activity by measuring combination MIC at >256 ug/ml incubated at 37 degC for 18 hrs by spectrophotometry based checkerboard microdilution assay.
The target is the same in test [20]. Put plainly: Inhibition of NDM1 in Escherichia coli clinical isolates assessed as potentiation of meropenem -induced antibacterial activity by measuring combination MIC at 64 ug/ml incubated at 37 degC for 18 hrs by spectrophotometry based checkerboard microdilution assay.
Test [21] has the same target. Put plainly: Inhibition of NDM1 in Escherichia coli clinical isolates assessed as potentiation of meropenem -induced antibacterial activity by measuring fractional inhibitory concentration index at 32 ug/ml incubated at 37 degC for 18 hrs by spectrophotometry based checkerboard microdilution assay.
Test [22] has the same target. Description: Inhibition of NDM1 in Escherichia coli clinical isolates assessed as potentiation of cefazolin-induced antibacterial activity by measuring fractional inhibitory concentration index at >256 ug/ml incubated at 37 degC for 18 hrs by spectrophotometry based checkerboard microdilution assay.
Test [23] has the same target. Description: Inhibition of NDM1 in Escherichia coli clinical isolates assessed as potentiation of cefotaxime-induced antibacterial activity by measuring fractional inhibitory concentration index at >256 ug/ml incubated at 37 degC for 18 hrs by spectrophotometry based checkerboard microdilution assay.
The target is the same in test [24]. Put plainly: Inhibition of NDM1 in Escherichia coli clinical isolates assessed as potentiation of meropenem -induced antibacterial activity by measuring fractional inhibitory concentration index at 64 ug/ml incubated at 37 degC for 18 hrs by spectrophotometry based checkerboard microdilution assay.

Values after ≈ are worked out from the molar mass of the structure shown.

The molecule `Cc1ccc(-n2nnnc2CS(=O)(=O)c2ccccc2)cc1` showed a Ki in test [1] of 71 µM. Also, the inhibition in [2] was more than 50%.
On to `Nc1nnnn1NCc1cccc(Cl)c1Cl`, for which the inhibitory constant (Ki) in test [1] came out at 67 µM. Moreover, the inhibition in test [2] is more than 50%.
The matching figures for `Cn1c(SCC(=O)O)nnc1-c1ccc(N)cc1`: 85 µM and more than 50%.
The corresponding values for `Nc1ncnc2c1nc(S(=O)(=O)O)n2Cc1ccccc1` are 65 µM and more than 50%.
Take `Cc1nnc(SCC2=C(C(=O)O)N3C(=O)[C@@H](NC(=O)Cn4cnnn4)[C@H]3SC2)s1` [CEFAZOLIN]: in test [3], the MIC was not below 32 µg/mL.
`O=C(O)CC(Sc1c[nH]c2ccccc12)C(=O)O` (stereo not drawn) showed a Ki in [1] of 68 µM. In addition, the inhibition in [2] is more than 50%.
The molecule `O=C(O)CN1C(=O)S/C(=C\c2ccccc2Br)C1=O` came in with a Ki in test [1] of 76 µM. In test [2], the inhibition is more than 50%.
With `CC1(C)S[C@@H]2[C@H](NC(=O)[C@H](N)c3ccccc3)C(=O)N2[C@H]1C(=O)O` [AMPICILLIN], the figures for the MIC in test [4] and in test [3] were more than 32800 µg/mL and 1020 to 2050 µg/mL (≈ 2930 to 5860 µM), respectively.
In the case of `Sc1nncn1NCc1cccc(Br)c1`, the fold change (FC) in test [5] and in [6] was 4 throughout. In test [1], this molecule came in with a Ki of 1 µM. The molecule further came in with an inhibition in [2] of more than 50%. The MIC in [7] amounted to 4 µg/mL; in test [8], 1020 µg/mL; in test [9] it was 0.25 µg/mL; in test [10], 0.5 µg/mL; in [11], 32 µg/mL; in [12] it was 32 µg/mL. Also, the results for the MIC in test [18], in test [19] and in [20] were 2050 µg/mL, 1020 µg/mL and 64 µg/mL, respectively. In addition, the fractional inhibitory concentration index (FICI) in test [13] is less than 0.501; in [14], less than 0.501; in test [15], less than 0.375; in test [16], less than 0.501; in [17], less than 0.501; in test [21], less than 0.313. Besides, the values for the fractional inhibitory concentration index (FICI) in test [22], in [23] and in [24] were more than 1, more than 1 and less than 0.501, respectively.
As for `O=C(CS(=O)(=O)c1ccccc1)NC1CCCCC1`, the inhibitory constant (Ki) in test [1] was 52 µM. In addition, the inhibition in test [2] is more than 50%.
As for `C[C@@H](O)[C@H]1C(=O)N2C(C(=O)O)=C(S[C@@H]3CN[C@H](C(=O)N(C)C)C3)[C@H](C)[C@H]12` [MEROPENEM], the MIC was found to be 128 µg/mL (≈ 334 µM) in test [4] and 1 µg/mL (≈ 2.61 µM) in [3].
Take `CO/N=C(\C(=O)N[C@@H]1C(=O)N2C(C(=O)O)=C(COC(C)=O)CS[C@H]12)c1csc(N)n1` [CEFOTAXIME]: the MIC in test [4] was 1020 µg/mL (≈ 2250 µM); in test [3], 8 µg/mL (≈ 17.6 µM).

Broadly, the Ki is the dissociation constant of the complex between target and ligand, obtained from inhibition or displacement. The low end stands for a stronger hold on the target, the high end for a looser hold on the target. In general, inhibition refers to how much of the control response was suppressed. A lower inhibition goes with a response near the control.
